The test system of assay [1] is Pa 27853. It counts as cell-based, Pseudomonas aeruginosa. In outline:
(§1)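 Compounds were serially diluted 2-fold (8 or 12 points) against inocula from MHA cultures, set to ~0.1 OD600 in 0.85% saline. Conjugates were tested in RPMI B. Plates were incubated at 35 °C for 16-20 h, and Pa LES431 was also run with and without 50% heat-inactivated FBS.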

For assay [2], the system named is Pa LES431. It counts as cell-based, Pseudomonas aeruginosa. In outline:
as §1

For assay [3], the system named is Pa PAO1. It counts as cell-based, Pseudomonas aeruginosa. As to conditions: for MIC in RPMI PA 01: PAO1, pH 7.4. In outline:
as §1

Assay [4] concerns LPS from E. coli O111:B4. In words: LPS binding/neutralization by Limulus Amebocyte Lysate (LAL) assay. It counts as biochemical. Conditions: LPS 1-10,000 ng/mL, test article 0.25-10 μM; sum of AUCs relative to maximal AUC (Table 15). How it is done:
The LAL assay (Charles River) was used to determine the binding affinity of test articles to LPS.
For the assay, 25 μL purified LPS from E. coli O111:[…] (Sigma) at doses ranging from 1-10,000 ng/mL were incubated with 25 μL of test article at concentrations ranging from […]. After 5 min incubation at 37° C., 50 μL of LAL reagent, which reacts with lipid A portion from LPS, was added to corresponding wells. After 15 min, absorbance at 405 nm was read on EnSpire plate reader (Perkin Elmer). The % LPS neutralization is calculated relative to a PBS control (background) and LPS control at each concentration (positive control).
LPS neutralization=(1−(absorbance test article−PBS with LAL reagent)/(absorbance no test article−PBS with LAL reagent))×100
To obtain a single value of LPS neutralization for each test article, the area under the curve (AUC) for dose-response of test articles from […] for each LPS concentration was calculated using Prism 7 software. The % LPS neutralization is the sum of the AUCs for each LPS concentration determined relative to the maximal AUC achievable×100.
For the assay, 25 μL purified LPS from E. coli O111:B4 (Sigma) at doses ranging from 1-10,000 ng/mL were incubated with 25 μL of test article at concentrations ranging from 0.25-10 μM. After 5 min incubation at 37° C., 50 μL of LAL reagent, which reacts with lipid A portion from LPS, was added to corresponding wells. After 15 min, absorbance at 405 nm was read on EnSpire plate reader (Perkin Elmer). The % LPS neutralization is calculated relative to a PBS control (background) and LPS control at each concentration (positive control).

Assay [5] deals with Ec 25922 64X-1 (COL^R). It counts as cell-based, Escherichia coli. As to conditions: media CA-MHB.
The test system of assay [6] is Ec AR0349 (mcr-1, COL^R). It counts as cell-based, Escherichia coli. Conditions: media CA-MHB.

≈ marks a conversion by molar mass, not a printed value. Read-outs that look alike come from different tables or passages of the source. *1 amine or outer side, *2 acyl side, *3 side chain or, on linkers, in order; H or OH if unused. Where a SMILES comes first, the peptide text is derived from it. Bridges are numbered along the chain shown (N, C = ends). Roman numbers before positions name the chains, in order. [ ]: non-standard residue; d: D form. The star is where a group is joined. X5 = C#CCOCCOCCOCCOCCN1C[C@@H](C(=O)[*:1])[C@H](C(=O)[*:2])C1; X2 = O=C([C@@H](N[*:1])[C@H](O)CCC(F)(F)F)[*:2]; Propargyl(OCH2CH2)4CO = C#CCOCCOCCOCCOCCC(=O)*; X3 = CCCCC[C@@H](O)[C@H](N[*:1])C(=O)[*:2]; azaDab = NCCN(N[*:1])C(=O)[*:2]; Aoc(2) = CCCCCC[C@H](N)C(=O)O; hLeu = CC(C)CC[C@H](N)C(=O)O; Nle = CCCC[C@H](N)C(=O)O; Dab = NCC[C@H](N)C(=O)O; azaGly = NNC(=O)O

We go through five compounds from patent US20230165970A1, “COMPOSITIONS AND METHODS FOR THE TREATMENT OF BACTERIAL INFECTIONS” (priority 2017, published 2023).

Broadly, the MIC is the least concentration at which growth counts as inhibited. As for `C#CCOCCOCCOCCOCCC(=O)N[C@@H](CCCCCC)C(=O)N[C@@H](CCN)C(=O)N[C@H](C(=O)N[C@@H](CCN)C(=O)N[C@H]1CCNC(=O)[C@H]([C@@H](C)O)NC(=O)[C@H](CCN)NC(=O)[C@H](CCN)NC(=O)[C@H](CC(C)C)NC(=O)[C@@H](Cc2ccccc2)NC(=O)[C@H](CCN)NC1=O)[C@H](O)CCC(F)(F)F` [Int-118] ({Propargyl(OCH2CH2)4CO}-[Aoc(2)][Dab][X2][Dab][Dab][Dab][dF]L[Dab][Dab]T; lactam 5-C), the minimal inhibitory concentration (MIC) is 2 µg/mL (≈ 1.31 µM) in assay [1], 1 µg/mL (≈ 0.654 µM) in assay [2] and 2 µg/mL (≈ 1.31 µM) in assay [3] (PAO1). Besides, the “MIC in RPMI PA 01” value in assay [3] was found to be 3.81 µg/mL (≈ 2.49 µM). Besides, the “% LPS neutralization” value in assay [4] is given as 59.0%.

For `C#CCOCCOCCOCCOCCN1C[C@@H](C(=O)N[C@@H](CCCC)C(=O)N[C@@H](CCN)C(=O)N[C@H](C(=O)NNC(=O)N[C@H]2CCNC(=O)[C@H]([C@@H](C)O)NC(=O)[C@H](CCN)NC(=O)[C@H](CCN)NC(=O)[C@H](CC(C)C)NC(=O)[C@@H](Cc3ccccc3)NC(=O)[C@H](CCN)NC2=O)[C@@H](C)O)[C@H](C(=O)N[C@@H](CCCC)C(=O)N[C@@H](CCN)C(=O)N[C@H](C(=O)NNC(=O)N[C@H]2CCNC(=O)[C@H]([C@@H](C)O)NC(=O)[C@H](CCN)NC(=O)[C@H](CCN)NC(=O)[C@H](CC(C)C)NC(=O)[C@@H](Cc3ccccc3)NC(=O)[C@H](CCN)NC2=O)[C@@H](C)O)C1` [Int-120] (I: [Nle][Dab]T[azaGly][Dab][Dab][dF]L[Dab][Dab]T / II: [Nle][Dab]T[azaGly][Dab][Dab][dF]L[Dab][Dab]T; lactam I:5-I:C, II:5-II:C; linker I:N-II:N via X5), the MIC in assay [5] was found to be 2 µg/mL (≈ 0.767 µM); in assay [6], 2 µg/mL (≈ 0.767 µM); in assay [1] (Pa 27853, media CA-MHB) it was 4 µg/mL (≈ 1.53 µM); in assay [2] (Pa LES431 + FBS (50%, heat-inactivated), media CA-MHB), 8 µg/mL; in assay [2] (Pa LES431, media CA-MHB) it was 2 µg/mL (≈ 0.767 µM); in assay [3] (Pa PAO1, media CA-MHB), 4 µg/mL (≈ 1.53 µM). The “% LPS neutralization” value in assay [4] is recorded as 68.0%.

As to `C#CCOCCOCCOCCOCCC(=O)N[C@@H](CCC(C)C)C(=O)N[C@@H](CCN)C(=O)N[C@H](C(=O)NNC(=O)N[C@H]1CCNC(=O)[C@H]([C@@H](C)O)NC(=O)[C@H](CCN)NC(=O)[C@H](CCN)NC(=O)[C@H](CC(C)C)NC(=O)[C@@H](Cc2ccccc2)NC(=O)[C@H](CCN)NC1=O)[C@H](O)CCCCC` [Int-116] ({Propargyl(OCH2CH2)4CO}-[hLeu][Dab][X3][azaGly][Dab][Dab][dF]L[Dab][Dab]T; lactam 5-C), the MIC in assay [5] stood at 64 µg/mL (≈ 44.2 µM); in assay [6] it was 8 µg/mL (≈ 5.53 µM); in assay [1], 4 µg/mL (≈ 2.76 µM); in assay [2], 4 µg/mL (≈ 2.76 µM); in assay [3] (PAO1), 4 µg/mL (≈ 2.76 µM). In addition, the “MIC in RPMI PA 01” value in assay [3] came to 8.41 µg/mL (≈ 5.81 µM). Besides, the “% LPS neutralization” value in assay [4] was 33.2%.

Regarding `C#CCOCCOCCOCCOCCC(=O)N[C@@H](CCC(C)C)C(=O)N[C@@H](CCN)C(=O)N[C@H](C(=O)NN(CCN)C(=O)N[C@H]1CCNC(=O)[C@H]([C@@H](C)O)NC(=O)[C@H](CCN)NC(=O)[C@H](CCN)NC(=O)[C@H](CC(C)C)NC(=O)[C@@H](Cc2ccccc2)NC(=O)[C@H](CCN)NC1=O)[C@@H](C)O` [Int-127] ({Propargyl(OCH2CH2)4CO}-[hLeu][Dab]T[azaDab][Dab][Dab][dF]L[Dab][Dab]T; lactam 5-C), the MIC in assay [5] stood at 64 µg/mL (≈ 44.6 µM); in assay [6], 8 µg/mL (≈ 5.58 µM); in assay [1], 2 µg/mL (≈ 1.39 µM); in assay [2], 1 µg/mL (≈ 0.697 µM); in assay [3] (PAO1) it was 2 µg/mL (≈ 1.39 µM). Besides, the “MIC in RPMI PA 01” value in assay [3] came out at 3.99 µg/mL (≈ 2.78 µM). The “% LPS neutralization” value in assay [4] came to 13.0%.

As for `C#CCOCCOCCOCCOCCC(=O)N[C@@H](CCCCCC)C(=O)N[C@@H](CCN)C(=O)N[C@H](C(=O)NN(CCN)C(=O)N[C@H]1CCNC(=O)[C@H]([C@@H](C)O)NC(=O)[C@H](CCN)NC(=O)[C@H](CCN)NC(=O)[C@H](CC(C)C)NC(=O)[C@@H](Cc2ccccc2)NC(=O)[C@H](CCN)NC1=O)[C@@H](C)O` [Int-129] ({Propargyl(OCH2CH2)4CO}-[Aoc(2)][Dab]T[azaDab][Dab][Dab][dF]L[Dab][Dab]T; lactam 5-C), the minimal inhibitory concentration (MIC) in assay [1] is 4 µg/mL (≈ 2.76 µM); in assay [2], 2 µg/mL (≈ 1.38 µM); in assay [3] (PAO1), 8 µg/mL (≈ 5.53 µM). For the same compound, the “% LPS neutralization” value in assay [4] was determined as 23.0%.
